IC50, EC50 and AC50 data for 3 molecules are collected here from ChEMBL document CHEMBL1201862, “PubChem BioAssay data set” (2004).

In test [1] the target is Beta-lactamase (Salmonella choleraesuis (strain SC-B67), UniProt Q5J463). Nature of the test: Epi-absorbance-based counterscreen for selective VIM-2 inhibitors: dose response biochemical high throughput screening assay to identify inhibitors of TEM-1 serine-beta-lactamase. (A counterscreen serves to expose hits that act by an unwanted route or on another target.)
A short description of test [2]: luciferase reporter signal suppression in cells – H4 neuroglioma cells, luminescence, dose response (AID 1990). It counts as functional, cell-based.
The target of test [3] is T1, Beta-lactamase (Pseudomonas aeruginosa, UniProt Q79MP6). Nature of the test: inhibition of IMP-1 beta-lactamase activity – biochemical, epi-absorbance, selectivity assay for VIM-2 inhibitor project, dose response (AID 1920).
A short description of test [4]: Luminescence Cell-Based Dose Response HTS to Identify Inhibitors of 5'UTR Stem-Loop Driven Prion Protein mRNA Translation in H4 Neuroglioblastoma Cells. [Related pubchem assays: 1827 (Project Summary), 1813 (Primary HTS)]. In kind it is functional.
Test [5] in a line: alpha-synuclein stem-loop luciferase translation blockers – H4 neuroglioma cells, luminescence, confirmation (AID 1988). In kind it is functional, cell-based.
The target of test [6] is T1, Beta-lactamase. The test is described as follows: […] counterscreen for selective VIM-2 inhibitors: dose response biochemical high throughput screening assay to identify inhibitors of IMP-1 metallo-beta-lactamase.
For test [7], the target named is DNA dC->dU-editing enzyme APOBEC-3A (Homo sapiens, UniProt P31941). The test is described as follows: A3A deaminase inhibition for selectivity – biochemical, dose response (AID 504722). In kind it is functional.
The target of test [8] is DNA dC->dU-editing enzyme APOBEC-3G (Homo sapiens, UniProt Q9HC16). The test is described as follows: Dose Response confirmation of small molecule APOBEC3G DNA Deaminase Inhibitors via a fluorescence-based single-stranded DNA deaminase assay. [Related pubchem assays (depositor defined):AID493012, AID493028]. It counts as functional.
Another test concerns the target Nonstructural protein 1 (Influenza A virus, UniProt Q194T2). It counts as functional, Influenza A virus (A/California/07/2009(H1N1)).
Test [9] deals with T2, Apoptotic protease-activating factor 1 (Homo sapiens, UniProt O14727).
T2 sequence (O14727 whole entry): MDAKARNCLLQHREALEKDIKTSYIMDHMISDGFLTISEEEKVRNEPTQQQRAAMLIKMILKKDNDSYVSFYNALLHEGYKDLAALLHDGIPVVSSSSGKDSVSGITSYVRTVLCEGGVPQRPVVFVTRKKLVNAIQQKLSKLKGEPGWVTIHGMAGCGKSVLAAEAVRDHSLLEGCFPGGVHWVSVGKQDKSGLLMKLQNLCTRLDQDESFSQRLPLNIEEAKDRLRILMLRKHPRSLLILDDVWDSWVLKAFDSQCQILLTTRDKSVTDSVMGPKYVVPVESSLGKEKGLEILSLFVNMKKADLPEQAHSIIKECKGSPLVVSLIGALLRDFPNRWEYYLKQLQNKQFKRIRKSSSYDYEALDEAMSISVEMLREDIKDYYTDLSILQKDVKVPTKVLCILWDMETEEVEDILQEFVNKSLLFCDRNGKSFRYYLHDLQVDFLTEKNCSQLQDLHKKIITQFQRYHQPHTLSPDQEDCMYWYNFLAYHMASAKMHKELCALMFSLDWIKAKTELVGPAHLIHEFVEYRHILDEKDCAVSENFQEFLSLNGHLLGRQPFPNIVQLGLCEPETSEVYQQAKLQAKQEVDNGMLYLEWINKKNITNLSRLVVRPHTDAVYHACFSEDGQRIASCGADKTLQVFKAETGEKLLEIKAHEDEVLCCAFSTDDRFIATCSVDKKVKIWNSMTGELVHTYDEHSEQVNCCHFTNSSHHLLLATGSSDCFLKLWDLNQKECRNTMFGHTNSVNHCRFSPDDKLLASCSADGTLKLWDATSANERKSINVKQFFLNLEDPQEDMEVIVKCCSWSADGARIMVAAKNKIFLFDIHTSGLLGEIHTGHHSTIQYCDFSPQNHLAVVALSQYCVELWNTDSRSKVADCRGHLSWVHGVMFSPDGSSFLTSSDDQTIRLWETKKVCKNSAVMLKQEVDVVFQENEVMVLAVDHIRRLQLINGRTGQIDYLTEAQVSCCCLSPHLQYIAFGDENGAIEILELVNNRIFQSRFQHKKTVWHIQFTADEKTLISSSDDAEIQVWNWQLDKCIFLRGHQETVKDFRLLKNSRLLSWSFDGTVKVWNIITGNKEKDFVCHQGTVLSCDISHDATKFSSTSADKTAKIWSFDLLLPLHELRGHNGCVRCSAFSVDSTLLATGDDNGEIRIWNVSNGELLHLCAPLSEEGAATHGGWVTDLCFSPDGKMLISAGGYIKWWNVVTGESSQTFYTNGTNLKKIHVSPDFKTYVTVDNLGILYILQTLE
It counts as functional.

In test [10] the target is T3, DNA repair protein RAD52 homolog (Homo sapiens, UniProt P43351).
T3 sequence (P43351 whole entry): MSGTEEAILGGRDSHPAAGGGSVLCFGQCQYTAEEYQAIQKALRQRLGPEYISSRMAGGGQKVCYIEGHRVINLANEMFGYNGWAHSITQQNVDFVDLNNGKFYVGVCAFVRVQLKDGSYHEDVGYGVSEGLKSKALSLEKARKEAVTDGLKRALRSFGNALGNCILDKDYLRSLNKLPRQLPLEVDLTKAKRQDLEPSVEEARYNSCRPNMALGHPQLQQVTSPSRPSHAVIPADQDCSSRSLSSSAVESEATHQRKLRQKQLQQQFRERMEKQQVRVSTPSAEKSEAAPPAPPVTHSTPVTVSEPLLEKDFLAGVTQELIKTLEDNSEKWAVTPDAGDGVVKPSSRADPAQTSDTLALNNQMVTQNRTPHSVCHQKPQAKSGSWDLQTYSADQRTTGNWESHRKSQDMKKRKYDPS
In kind it is functional, biochemical.

The next test concerns A549. Nature of the test: viability loss in A549 cells – cell-based, plate reader, cherry-pick samples, cytotoxicity control, dose response (AID 687028). It counts as functional. To be noted: Homo sapiens.
In the next test the target is T4, Caspase-6 (Homo sapiens, UniProt P55212).
T4 sequence (P55212 whole entry): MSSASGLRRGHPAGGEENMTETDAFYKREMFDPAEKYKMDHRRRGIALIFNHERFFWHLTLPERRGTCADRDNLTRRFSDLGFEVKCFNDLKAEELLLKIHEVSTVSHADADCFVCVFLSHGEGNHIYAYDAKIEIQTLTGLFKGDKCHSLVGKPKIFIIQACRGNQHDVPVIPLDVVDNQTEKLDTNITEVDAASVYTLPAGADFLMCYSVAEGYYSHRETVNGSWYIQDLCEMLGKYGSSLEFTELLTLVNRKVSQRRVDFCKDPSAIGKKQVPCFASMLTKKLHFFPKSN
Nature of the test: inhibition of CASP6 peptide cleavage – biochemical, VEID-R110 fluorescence, cherry-pick, dose response (AID 720632).

Another test has as its target Caspase-9 (Homo sapiens, UniProt P55211). The test is described as follows: inhibitors of purified CASP9 protease – biochemical, fluorescence, plate reader, cherry-picked samples, selectivity assay for caspase-6 inhibitor project, dose response (AID 743293).
A short description of test [11]: A549 cell cytotoxicity, dose response, cytotoxicity control, plate reader, cherry-pick, antagonist series (AID 743412). In kind it is functional, cell-based.
A short description of test [12]: toxicity toward HepG2 liver cells – cell-based, plate reader, cherry-pick, antagonist series, cytotoxicity control, dose response (AID 743416). In kind it is functional.
Test [13] is described as follows: blockers of bursicon-stimulated LGR2 cAMP reporter – cell-based, HEK293, CRE-luciferase reporter, cherry pick, set 2, dose response (AID 743343).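 Also: transfected cells were stimulated with diluted bursicon conditioned medium after compound addition.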 It counts as functional.
In the next test the target is Caspase-7 (Homo sapiens, UniProt P55210). Nature of the test: caspase-7 enzyme inhibition, selectivity check – biochemical, DEVD-R110 fluorescence, cherry-pick, selectivity assay for caspase-6 inhibitor project, dose response (AID 743295). In kind it is functional.
The nature of test [14]: blockade of melanocortin 4 receptor signaling – cell-based, plate reader, cherry pick, counter-screen for LGR2 antagonist project, dose response (AID 743444).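 Also: transfected HEK 293 cells stimulated with alpha-MSH peptide; potency of inhibitors of the alpha-MSH evoked signal.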 It counts as functional.
Another test addresses Caspase-8 (Homo sapiens, UniProt Q14790). The test is described as follows: inhibitors of purified CASP8 protease – biochemical, Z-IETD-R110 fluorescence, cherry-picked samples, selectivity assay for caspase-6 inhibitor project, dose response (AID 743294).
The subject of a further test is Vero. Nature of the test: viability loss in Vero cells – cell-based, plate reader, cherry-pick samples, cytotoxicity control, dose response (AID 687020). In kind it is functional. Particulars: Chlorocebus sabaeus.

The source made the active and inactive calls.

T1 sequence (Q79MP6 whole entry): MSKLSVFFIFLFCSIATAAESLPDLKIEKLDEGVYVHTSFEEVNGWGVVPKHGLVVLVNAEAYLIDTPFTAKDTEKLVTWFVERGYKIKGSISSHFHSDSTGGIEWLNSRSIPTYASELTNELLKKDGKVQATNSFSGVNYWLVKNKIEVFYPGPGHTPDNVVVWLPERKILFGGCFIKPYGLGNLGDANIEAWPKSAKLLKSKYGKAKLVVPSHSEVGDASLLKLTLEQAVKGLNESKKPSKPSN
Sequence of Caspase-9 (P55211 1-315 limits assumed): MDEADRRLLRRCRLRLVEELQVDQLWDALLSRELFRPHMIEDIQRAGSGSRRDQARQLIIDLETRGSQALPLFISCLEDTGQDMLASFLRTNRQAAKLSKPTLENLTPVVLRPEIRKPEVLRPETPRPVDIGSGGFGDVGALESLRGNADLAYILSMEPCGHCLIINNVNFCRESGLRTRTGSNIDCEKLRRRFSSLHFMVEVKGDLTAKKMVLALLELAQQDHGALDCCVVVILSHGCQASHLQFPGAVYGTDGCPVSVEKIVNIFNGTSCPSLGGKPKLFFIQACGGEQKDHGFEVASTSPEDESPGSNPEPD
Sequence of Caspase-9 (P55211 331-416 limits assumed): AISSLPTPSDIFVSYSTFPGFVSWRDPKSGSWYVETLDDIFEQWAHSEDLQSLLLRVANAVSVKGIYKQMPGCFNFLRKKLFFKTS
Sequence of Beta-lactamase (Salmonella choleraesuis (strain SC-B67), UniProt Q5J463) (Q5J463 whole entry): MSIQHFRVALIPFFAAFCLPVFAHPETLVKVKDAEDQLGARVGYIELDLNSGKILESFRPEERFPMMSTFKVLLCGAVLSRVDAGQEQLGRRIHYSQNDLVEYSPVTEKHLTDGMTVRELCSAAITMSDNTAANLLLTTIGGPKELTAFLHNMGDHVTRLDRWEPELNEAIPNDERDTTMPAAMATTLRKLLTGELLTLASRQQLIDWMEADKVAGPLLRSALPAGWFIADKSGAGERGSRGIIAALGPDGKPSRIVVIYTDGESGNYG
Sequence of DNA dC->dU-editing enzyme APOBEC-3G (Q9HC16 whole entry): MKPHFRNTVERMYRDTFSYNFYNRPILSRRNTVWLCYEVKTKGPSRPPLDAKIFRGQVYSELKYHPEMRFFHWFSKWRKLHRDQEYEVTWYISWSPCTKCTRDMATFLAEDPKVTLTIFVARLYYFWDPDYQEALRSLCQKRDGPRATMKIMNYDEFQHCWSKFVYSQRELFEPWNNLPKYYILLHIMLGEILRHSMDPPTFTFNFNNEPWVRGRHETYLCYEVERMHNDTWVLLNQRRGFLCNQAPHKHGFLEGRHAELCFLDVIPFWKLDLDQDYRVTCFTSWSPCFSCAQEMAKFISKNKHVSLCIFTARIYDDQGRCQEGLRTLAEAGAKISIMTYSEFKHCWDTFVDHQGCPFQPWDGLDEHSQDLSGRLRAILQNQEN
Sequence of Caspase-7 (P55210 24-198 limits assumed): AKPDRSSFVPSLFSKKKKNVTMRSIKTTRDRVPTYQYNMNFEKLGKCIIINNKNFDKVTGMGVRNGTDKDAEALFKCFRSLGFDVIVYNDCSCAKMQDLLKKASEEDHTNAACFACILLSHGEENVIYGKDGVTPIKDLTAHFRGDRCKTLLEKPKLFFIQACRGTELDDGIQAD
Sequence of Caspase-7 (P55210 207-303 limits assumed): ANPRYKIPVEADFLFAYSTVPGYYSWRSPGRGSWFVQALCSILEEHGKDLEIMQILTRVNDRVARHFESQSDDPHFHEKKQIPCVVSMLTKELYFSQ
Sequence of Caspase-8 (Q14790 217-374 limits assumed): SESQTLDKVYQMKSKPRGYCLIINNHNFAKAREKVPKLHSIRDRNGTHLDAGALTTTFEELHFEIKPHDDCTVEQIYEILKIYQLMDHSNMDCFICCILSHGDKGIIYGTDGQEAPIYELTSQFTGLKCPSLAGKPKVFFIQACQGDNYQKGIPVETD
Sequence of Caspase-8 (Q14790 385-479 limits assumed): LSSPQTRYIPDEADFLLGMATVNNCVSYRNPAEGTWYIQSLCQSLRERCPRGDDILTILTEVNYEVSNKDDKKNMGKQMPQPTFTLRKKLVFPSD
Sequence of Nonstructural protein 1 (Q194T2 whole entry): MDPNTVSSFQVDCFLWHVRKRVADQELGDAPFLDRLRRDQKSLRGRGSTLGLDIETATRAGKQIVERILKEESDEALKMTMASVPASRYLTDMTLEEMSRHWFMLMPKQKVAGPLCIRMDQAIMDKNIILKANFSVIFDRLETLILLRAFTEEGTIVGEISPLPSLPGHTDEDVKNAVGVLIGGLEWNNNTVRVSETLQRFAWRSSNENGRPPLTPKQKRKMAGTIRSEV
Sequence of DNA dC->dU-editing enzyme APOBEC-3A (P31941 whole entry): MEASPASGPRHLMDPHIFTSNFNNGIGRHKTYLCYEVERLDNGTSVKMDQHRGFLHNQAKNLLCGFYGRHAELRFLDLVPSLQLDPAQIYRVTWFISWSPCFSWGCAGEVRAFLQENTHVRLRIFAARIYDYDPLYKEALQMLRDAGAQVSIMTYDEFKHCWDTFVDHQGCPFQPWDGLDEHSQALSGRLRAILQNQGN

Regarding `Sc1nnc(-c2ccccc2)n1C1C=CCCC1` (stereo unspecified), the IC50 at Beta-lactamase [1] was > 59.6 µM (inactive); at Beta-lactamase [3], > 59.6 µM (inactive); on Beta-lactamase [6], > 59.6 µM (inactive); in [7], > 100 µM (inactive); in [8] it was 5.37 µM (active). Moreover, the values for the EC50 in test [2], in [4] and in test [5] were > 120 µM (not active), 104 µM (active) and > 120 µM (not active), respectively.

As for `CN(C)CCCNc1cc(O)c2ncccc2c1`, the IC50 was 4.57 µM (active) on Nonstructural protein 1 and 15.8 µM (active) in test [9]. Further, the AC50 in test [10] was 1.15 µM (active); with A549, 20.2 µM (active); at Caspase-6, 3.64 µM (active); at Caspase-9 it was > 70 µM (inactive); in test [11], 8.67 µM (active); in test [12], 7.93 µM (active). For the same molecule, the half-maximal activity concentration (AC50) is 32 µM (active) in [13], 7.56 µM (active) on Caspase-7, 25.3 µM (active) in [14] and 42 µM (active) on Caspase-8.

In the case of `Cc1c(CCC(=O)NCCCN2CCCC2=O)c(=O)oc2cc(O)ccc12`, the AC50 with Vero was 30.1 µM (active).

Broadly, the IC50 is the concentration at which inhibition is half-maximal. As a reminder, the EC50 is the concentration giving half of the maximal effect. Usually AC50 stands for the midpoint of the concentration-response curve, whichever way the signal moves.
